Experimental findings from patent publication US20170291890A1 (Epizyme, Inc., priority 2014, published 2017) are described below.

Each structure is given as a SMILES string.

In the assay the target is T1, KDM5A (Homo sapiens, UniProt P29375).
T1 construct: C-terminal FLAG-tagged KDM5A^1-1090 was purchased from BPS Biosciences; FLAG (C); purchased BPS Biosciences
T1 sequence (P29375 1-1090): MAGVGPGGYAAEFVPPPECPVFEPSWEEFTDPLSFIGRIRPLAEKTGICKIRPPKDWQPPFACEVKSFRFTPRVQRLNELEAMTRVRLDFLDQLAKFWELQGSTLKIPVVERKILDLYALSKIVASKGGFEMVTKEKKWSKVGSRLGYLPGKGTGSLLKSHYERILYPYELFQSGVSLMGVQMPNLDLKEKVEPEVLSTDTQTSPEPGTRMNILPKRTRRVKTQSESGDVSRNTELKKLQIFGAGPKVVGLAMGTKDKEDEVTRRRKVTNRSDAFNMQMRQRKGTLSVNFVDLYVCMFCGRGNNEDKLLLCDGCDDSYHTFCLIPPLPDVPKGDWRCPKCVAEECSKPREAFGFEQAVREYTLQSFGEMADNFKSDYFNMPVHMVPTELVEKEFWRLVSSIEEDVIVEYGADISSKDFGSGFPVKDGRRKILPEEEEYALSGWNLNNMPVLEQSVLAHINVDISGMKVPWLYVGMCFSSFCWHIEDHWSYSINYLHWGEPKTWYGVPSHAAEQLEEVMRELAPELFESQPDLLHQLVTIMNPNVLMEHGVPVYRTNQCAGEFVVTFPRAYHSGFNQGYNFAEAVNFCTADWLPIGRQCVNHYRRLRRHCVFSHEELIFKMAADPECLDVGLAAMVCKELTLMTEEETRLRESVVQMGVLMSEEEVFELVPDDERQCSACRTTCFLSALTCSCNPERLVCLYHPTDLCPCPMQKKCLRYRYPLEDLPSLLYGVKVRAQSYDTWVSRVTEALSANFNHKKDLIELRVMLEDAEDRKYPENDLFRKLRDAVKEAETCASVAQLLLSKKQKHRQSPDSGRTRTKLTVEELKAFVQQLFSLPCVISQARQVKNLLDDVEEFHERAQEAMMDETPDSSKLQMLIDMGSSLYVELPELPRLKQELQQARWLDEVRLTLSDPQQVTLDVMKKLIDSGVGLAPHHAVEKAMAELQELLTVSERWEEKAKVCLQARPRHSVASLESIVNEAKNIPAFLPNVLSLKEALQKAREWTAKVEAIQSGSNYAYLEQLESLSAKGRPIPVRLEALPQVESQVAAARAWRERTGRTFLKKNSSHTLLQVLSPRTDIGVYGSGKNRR
The experiment in a line: KDM5A Assay (SAMDI mass spectrometry demethylase assay). The settings on record: C-terminal FLAG-tagged KDM5A 1-1090; class symbols; read-out: 5A IC50. The format is biochemical. As to the method: C-terminal FLAG-tagged KDM5A^1-1090 was purchased from BPS Biosciences. Peptides were synthesized by BioPeptide and all other reagents were purchased from Sigma-Aldrich at the highest level of purity possible. Assays were performed in a 50 μL volume in 384-well V-bottom polypropylene microplates (Greiner) at 25° C. Optimized 1× assay buffer was 50 mM HEPES (pH=8.0), 100 μM sodium ascorbate, 20 mM NaCl, 10 μM ammonium iron sulfate, 1 mM tris(2-carboxyethyl)phosphine (TCEP), 0.002% Tween-20, and 0.005% BSG. For compound screening, 35 μL of […] (final concentration, f.c.=20 nM) was added using a Multidrop Combi and preincubated with 1 μL of test compound (f.c.=10 μM) for 30 minutes and subsequently 15 μL of peptide with the following sequence NH2-ART[Kme-3]QTARKSTGGKA[K-Ahx-Biot]-amide (f.c.=250 nM) and 2-oxoglutarate (f.c.=15 μM) was added by Multidrop Combi to begin the reaction. Reactions proceeded for 150 minutes and were stopped by the addition of 5 μL of formic acid (f.c.=0.5%) using a Multidrop Combi and then analyzed by SAMDI Tech Inc.
SAMDI Tech analyzed all reactions using self-assembled monoloayer desorption/ionization technology as previously described (Gerard-Levin Z A, Scholle M D, Eisenberg A H, et al.: High-throughput screening of small molecule libraries using SAMDI mass spectrometry. ACS Comb Sci 2011; 13:347-350). Briefly, a 2 μL sample of the stopped demethylase reactions were transferred to a SAMDI array coated with 384 biotin-neutravidin spots using a 384-channel pipet station. The SAMDI arrays were incubated for 1 h in a humidified chamber, followed by washing of the surface with deionized ultra-filtered water (DIUF) and drying under nitrogen. A matrix of 30 mg/ml 2′,4′,6′-Trihydroxyacetophenone monohydrate (THAP) in acetone was applied using a TPP Mosquito 1.2 μL tip by dispensing 50 nL on each of the 384 spots on the array. SAMDI-MS was run using acquisition method ReflectorPositiveUTX. The % conversion of substrate to product was calculated using the AUC of the substrate and product peptide peaks.
An IC50 value was determined by contacting various concentrations of a test compound with one of the KDM4A, KDM4C or KDMSC enzyme constructs and plotting a dose-response curve which associates the amount of inhibition of the enzyme relative to the concentration of the test compound. From the curve, the IC50 value (which represents the concentration of the test compound necessary to inhibit maximal enzymatic activity by 50%) was determined. Additionally, the slope of the linear range of the plotted curve, which indicates the speed with which the curve rises between the minimum and maximum, was calculated.
Broadly, the IC50 is the point on the concentration scale where inhibition reaches its midpoint. Regarding `Cc1nn(C2CCCNCC2)cc1Nc1cnccc1C(=O)O` (single isomer, unassigned) [Compound 114], the IC50 is 0.1 to 1 µM.

Consider `Cc1nn(C2CCCNCC2)cc1Nc1cnccc1C(=O)O` (single isomer, unassigned) [Compound 116], for which the IC50 is 0.1 to 1 µM.

Regarding `Cn1ncc(-c2ccccc2)c1Nc1cnccc1C(=O)O` [Compound 1], the IC50 was in the range of 1 to 10 µM.

`Cc1cn(-c2ccccc2)c(Nc2cnccc2C(=O)O)n1` [Compound 2]: the IC50 lay in the range of 1 to 10 µM.

On to `Cn1cc(-c2ccccc2)c(Nc2cnccc2C(=O)O)n1` [Compound 3], for which the 50% inhibitory concentration (IC50) was in the range of 1 to 10 µM.

Take `Cn1nc(-c2ccccc2)cc1Nc1cnccc1C(=O)O` [Compound 6]: the half-inhibitory concentration (IC50) was 0.001 to 0.1 µM.

For the compound `Cn1cc(-c2ccc(F)cc2)c(Nc2cnccc2C(=O)O)n1` [Compound 7, 3-((4-(4-Fluorophenyl)-1-methyl-1H-pyrazol-3-yl)amino) isonicotinic acid], the IC50 was 0.1 to 1 µM.

Turning to `Cn1ncc(-c2ccc(F)cc2)c1Nc1cnccc1C(=O)O` [Compound 8, 3-((4-(4-fluorophenyl)-1-methyl-1H-pyrazol-5-yl)amino) isonicotinic acid], the IC50 fell in the range of 10 to 100 µM.

Consider `Cn1cc(-c2cccc(F)c2)c(Nc2cnccc2C(=O)O)n1` [Compound 9, 3-((4-(3-Fluorophenyl)-1-methyl-1H-pyrazol-3-yl)amino) isonicotinic acid], for which the IC50 is 0.1 to 1 µM.

Regarding `Cn1ncc(-c2cccc(F)c2)c1Nc1cnccc1C(=O)O` [Compound 10, 3-((4-(3-Fluorophenyl)-1-methyl-1H-pyrazol-5-yl)amino) isonicotinic acid], the IC50 was 10 to 100 µM.

Consider `Cn1cc(-c2ccccc2F)c(Nc2cnccc2C(=O)O)n1` [Compound 11, 3-((4-(2-Fluorophenyl)-1-methyl-1H-pyrazol-3-yl)amino) isonicotinic acid], for which the IC50 lay in the range of 1 to 10 µM.

Turning to `Cn1ncc(-c2ccccc2F)c1Nc1cnccc1C(=O)O` [Compound 12, 3-((4-(2-fluorophenyl)-1-methyl-1H-pyrazol-5-yl)amino) isonicotinic acid], the IC50 was in the range of 0.1 to 1 µM.

As to `Cn1cc(Nc2cnccc2C(=O)O)c(-c2ccccc2)n1` [Compound 13, 3-((1-methyl-3-phenyl-1H-pyrazol-4-yl)amino) isonicotinic acid], the IC50 was in the range of 1 to 10 µM.

For `O=C(O)c1ccncc1Nc1nn(CCN2CCC(F)(F)CC2)cc1-c1ccccc1` [Compound 14, 3-((1-(2-(4,4-Difluoropiperidin-1-yl)ethyl)-4-phenyl-1H-pyrazol-3-yl)amino)isonicotinic acid], the IC50 was 0.001 to 0.1 µM.

For the compound `O=C(O)c1ccncc1Nc1c(-c2ccccc2)cnn1CCN1CCC(F)(F)CC1` [Compound 15, 3-((1-(2-(4,4-difluoropiperidin-1-yl)ethyl)-4-phenyl-1H-pyrazol-5-yl)amino)isonicotinic acid], the IC50 fell in the range of 1 to 10 µM.

Regarding `Cc1n[nH]c(C)c1Nc1cnccc1C(=O)O` [Compound 16, 3-((3,5-Dimethyl-1H-pyrazol-4-yl)amino)isonicotinic acid], the IC50 lay within 10 to 100 µM.

Take `O=C(O)c1ccncc1Nc1cn(CCN2CCC(F)(F)CC2)nc1-c1ccccc1` [Compound 17, 3-((1-(2-(4,4-Difluoropiperidin-1-yl)ethyl)-3-phenyl-1H-pyrazol-4-yl)amino)isonicotinic acid]: the IC50 lay in the range of 0.1 to 1 µM.

For `O=C(O)c1ccncc1Nc1cnn(CCN2CCC(F)(F)CC2)c1-c1ccccc1` [Compound 18, 3-((1-(2-(4,4-difluoropiperidin-1-yl)ethyl)-5-phenyl-1H-pyrazol-4-yl)amino)isonicotinic acid], the IC50 lay in the range of 1 to 10 µM.

In the case of `Cc1nn(-c2ccccc2)cc1Nc1cnccc1C(=O)O` [Compound 19, 3-((3-Methyl-1-phenyl-1H-pyrazol-4-yl)amino)isonicotinic acid], the IC50 fell in the range of 0.001 to 0.1 µM.

In the case of `Cc1c(Nc2cnccc2C(=O)O)cnn1-c1ccccc1` [Compound 20, 3-((5-methyl-1-phenyl-1H-pyrazol-4-yl)amino)isonicotinic acid], the IC50 was in the range of 1 to 10 µM.
